Reference: ChEMBL document CHEMBL4814028, “Design, synthesis, and antibacterial evaluation of PFK-158 derivatives as potent agents against drug-resistant bacteria” (Bioorg Med Chem Lett, 2021)
In brackets after ≈: the same amount, converted by molar mass.

Tests used:
Type in all cases: functional
[1] = tested on: Staphylococcus epidermidis; assay: Antibacterial activity against methicillin-sensitive Staphylococcus epidermidis ATCC 12228 by agar method
[2] = tested on: Staphylococcus epidermidis; assay: Antibacterial activity against methicillin-resistant Staphylococcus epidermidis 16-5 by agar method
Staphylococcus aureus [3] = assay: Antibacterial activity against methicillin-sensitive Staphylococcus aureus ATCC 29213 by agar method
Staphylococcus aureus [4] = assay: Antibacterial activity against methicillin-resistant Staphylococcus aureus ATCC 33591 by agar method
Enterococcus faecalis [5] = assay: Antibacterial activity against Vancomycin-sensitive Enterococcus faecalis ATCC 29212 by agar method
Enterococcus faecalis [6] = assay: Antibacterial activity against vancomycin-resistant Enterococcus faecalis ATCC 51299 by agar method
Escherichia coli [7] = assay: Antibacterial activity against ESBLs positive Escherichia coli ATCC 35218 by agar method
Escherichia coli [8] = assay: Antibacterial activity against ESBLs negative Escherichia coli ATCC 25922 by agar method
Escherichia coli [9] = assay: Antibacterial activity against NDM-1 positive Escherichia coli ATCC 2469 by agar method
Acinetobacter baumannii = assay: Antibacterial activity against carbapenem-resistant Acinetobacter baumannii 16-33 by agar method

SMILES | MIC [1] [µg/mL] | MIC [2] [µg/mL] | MIC (Staphylococcus aureus [3]) [µg/mL] | MIC (Staphylococcus aureus [4]) [µg/mL] | MIC (Enterococcus faecalis [5]) [µg/mL] | MIC (Enterococcus faecalis [6]) [µg/mL] | MIC (Escherichia coli [7]) [µg/mL] | MIC (Escherichia coli [8]) [µg/mL] | MIC (Escherichia coli [9]) [µg/mL] | MIC (Acinetobacter baumannii) [µg/mL]
O=C(/C=C/c1ccc2ccc(C(F)(F)F)cc2n1)c1ccccc1 | > 128 | > 128 | > 128 | > 128 | > 128 | > 128 | > 128 | > 128 | > 128 | > 128
O=C(/C=C/c1cccnc1)c1ccc2ccc(C(F)(F)F)cc2n1 | > 32 | > 32 | > 32 | 32 (≈ 97.5 µM) | > 32 | > 32 | > 32 | > 32 | > 32 | > 32
O=C(/C=C/c1ccc2ccccc2c1)c1ccccn1 | > 128 | > 128 | > 128 | > 128 | > 128 | > 128 | > 128 | > 128 | > 128 | > 128
C[n+]1ccc(C(=O)/C=C/c2ccc3ccccc3c2)cc1.[I-] | 128 | 128 | 128 | 64 | > 128 | > 128 | > 128 | > 128 | > 128 | > 128
O=C(/C=C/c1ccc2ccccc2c1)c1ccncc1 | > 128 | > 128 | > 128 | > 128 | > 128 | > 128 | > 128 | > 128 | > 128 | > 128
O=C(/C=C/c1ccc2ncccc2c1)c1cccnc1 | 8 (≈ 30.7 µM) | 8 (≈ 30.7 µM) | 16 (≈ 61.5 µM) | 16 (≈ 61.5 µM) | 32 (≈ 123 µM) | 32 (≈ 123 µM) | > 128 | > 128 | > 128 | 128 (≈ 492 µM)
O=C(/C=C/c1ccc2ccc(C(F)(F)F)cc2n1)c1ccc2c(c1)OCO2 | > 128 | > 128 | > 128 | > 128 | > 128 | > 128 | > 128 | > 128 | > 128 | > 128
C[n+]1cccc(C(=O)/C=C/c2ccc3ccccc3c2)c1.[I-] | > 128 | > 128 | > 128 | > 128 | > 128 | > 128 | > 128 | > 128 | > 128 | > 128
O=C(/C=C/c1ccncc1)c1ccc2ccc(C(F)(F)F)cc2n1 | > 32 | > 32 | > 32 | 16 (≈ 48.7 µM) | > 32 | > 32 | > 32 | > 32 | > 32 | > 32
C[n+]1cccc(/C=C/C(=O)c2ccc3ccccc3c2)c1.[I-] | 64 | > 128 | 128 | 128 | > 128 | > 128 | > 128 | > 128 | > 128 | > 128
O=C(/C=C/c1ccc2ncccc2c1)c1ccncc1 | 16 (≈ 61.5 µM) | 16 (≈ 61.5 µM) | 8 (≈ 30.7 µM) | 8 (≈ 30.7 µM) | 32 (≈ 123 µM) | 32 (≈ 123 µM) | > 128 | > 128 | > 128 | 128 (≈ 492 µM)
O=C(/C=C/c1cnc2ccccc2c1)c1ccccn1 | 8 (≈ 30.7 µM) | 8 (≈ 30.7 µM) | 8 (≈ 30.7 µM) | 8 (≈ 30.7 µM) | 32 (≈ 123 µM) | 32 (≈ 123 µM) | > 128 | > 128 | > 128 | 128 (≈ 492 µM)
O=C(/C=C/c1ccc2ccccc2n1)c1ccc(O)c(O)c1 | 16 (≈ 54.9 µM) | 32 (≈ 110 µM) | 32 (≈ 110 µM) | 32 (≈ 110 µM) | > 64 | > 64 | > 64 | > 64 | > 64 | > 64
C[n+]1cccc(C(=O)/C=C/c2ccc3ccc(C(F)(F)F)cc3n2)c1.[I-] | 64 | 64 | 64 | 32 | 128 | 128 | > 128 | > 128 | > 128 | > 128
COCOc1ccc(C(=O)/C=C/c2ccc3ccc(C(F)(F)F)cc3n2)cc1OCOC | > 64 | > 64 | > 64 | > 64 | > 64 | > 64 | > 64 | > 64 | > 64 | > 64
C[C@H]1COc2c(N3CCN(C)CC3)c(F)cc3c(=O)c(C(=O)O)cn1c23.C[C@H]1COc2c(N3CCN(C)CC3)c(F)cc3c(=O)c(C(=O)O)cn1c23.O [LEVOFLOXACIN] | 0.12 | 8 | 0.12 | 0.12 | 1 | 0.5 | – | – | 16 | 2
